# Assay results: ChEMBL document CHEMBL1146515, “Four new triterpenoids from Maytenus ilicifolia” (J Nat Prod, 2004)
# Activity calls are given as the source filed them. The rule behind the calls is not given here.
# Assays:
# Type in all cases: functional, cell-based
# [1] = system: KB; assay: Cytotoxicity against vincristine-sensitive human KB cells after 72 hrs by alamar blue assay
# [2] = system: HL-60; assay: Induction of human HL60 cell differentiation assessed as morphological change at 0.05 to 25 ug/ml by phase-contrast microscopy
# [3] = system: KB/VJ300; assay: Reversal of vincristine resistance in human KB/VJ300 cells
# [4] = system: KB/VJ300; assay: Cytotoxicity against vincristine-resistant human KB/VJ300 cells after 72 hrs by alamar blue assay
# [5] = species on record: Homo sapiens; assay: Cytotoxicity against human KU-19-20 cells after 72 hrs by alamar blue assay
SMILES,IC50 [1] [mg/L],Activity [2],Activity [3],Activity [4],Activity [5]
CC1(C)CC[C@]2(CO)CC[C@]3(C)C(=CC[C@@H]4[C@@]5(C)CC[C@H](OC(=O)/C=C/c6ccc(O)c(O)c6)C(C)(C)[C@@H]5CC[C@]43C)[C@H]2C1,> 10,inactive,inactive,,
C=C(C)[C@@H]1CC[C@]2(CO)CC[C@]3(C)[C@H](CC[C@@H]4[C@@]5(C)CC[C@H](OC(=O)/C=C/c6ccc(O)c(O)c6)C(C)(C)[C@@H]5CC[C@]43C)[C@@H]12,> 10,inactive,inactive,,
C=C(C)[C@@H]1CC[C@]2(CO)CC[C@]3(C)[C@H](CC[C@@H]4[C@@]5(C)C[C@@H](O)C(=O)C(C)(C)[C@@H]5CC[C@]43C)[C@H]12 [MAYTEFOLIN A],> 10,inactive,inactive,,
CC1(C)CC[C@]2(CO)CC[C@]3(C)C(=CC[C@@H]4[C@@]5(C)CC[C@H](O)C(C)(C)[C@@H]5CC[C@]43C)[C@@H]2C1 [ERYTHRODIOL],7,inactive,inactive,Active,Active
C=C(C)[C@@H]1CC[C@]2(CO)CC[C@]3(C)[C@H](CC[C@@H]4[C@@]5(C)CC[C@H](O)C(C)(C)[C@@H]5CC[C@]43C)[C@@H]12 [BETULIN],> 10,inactive,inactive,,
C[C@H]1[C@H](C)CC[C@]2(CO)CC[C@]3(C)C(=CC[C@@H]4[C@@]5(C)CC[C@H](OC(=O)/C=C/c6ccc(O)c(O)c6)C(C)(C)[C@@H]5CC[C@]43C)[C@H]12,> 10,inactive,inactive,,
